Experimental data: patent US20100310679A1, “NOVEL COMPOSITIONS FOR CONTROL OF MALICIOUS MARINE ANEMONES” (priority 2008, published 2010)

Tested on: marine pest anemone
Assay: Empirically determined effective concentration ranges of ingredients in agar-anemonescide-desensitizer preparation
Type: in vivo
Details: concentration of the ingredient in the agar-anemonescide-desensitizer preparation
Description: Table 1 also lists the empirically determined effective concentration ranges of the various ingredients. While it is believed that less than the minimal effective concentrations might impair the effectiveness of that ingredient, and more than effective concentration will not further improve the effectiveness, it is to be understood that the table is provided by way of enablement and is not to be construed as limiting the invention to the preferred ranges.

Structure (SMILES)	Empirically Determined Effective Concentration range (Min-Max)
O=S(=O)([O-])[O-].[Ca+2] [CaSO4, calcium sulphate]	5 to 150 g/L
O=S(=O)([O-])[O-].[Mg+2] [MgSO4, magnesium sulphate]	0.5 to 10 g/L
[Na+].[OH-] [NaOH, sodium hydroxide]	5 to 120 g/L
O.O.[Ca+2].[Cl-].[Cl-] [CaCl2•2H2O]	10-500 g/l

Tested on: sea anemone Anthopleura midorii
Assay: not given
Details: added to artificial food; cited from earlier work

Structure (SMILES)	effect on feeding motions
O=C(O)[C@@H]1CCCN1 [proline]	evoked mouth opening
C[C@H](N)C(=O)O [alanine]	stimulated the retention of artificial food by tentacles
N[C@@H](Cc1c[nH]cn1)C(=O)O [histidine]	stimulated the retention of artificial food by tentacles
NC(=O)C[C@H](N)C(=O)O [asparagine]	stimulated the retention of artificial food by tentacles
N[C@@H](CS)C(=O)O [Cysteine]	induced food ingestion
N[C@@H](CCC(=O)N[C@@H](CS)C(=O)NCC(=O)O)C(=O)O [reduced glutathione (GSH), reduced glutathione]	induced food ingestion
NCC(=O)O [glycine]	stimulated the retention of artificial food by tentacles
